This note sets out measurements from ChEMBL document CHEMBL5442741, “ASAP - In vitro kinase profile” (2024).

The target in test [1] is Cyclin-dependent kinase 2/cyclin A (Homo sapiens) (UniProt P24941+P20248+P78396). Description: Enzymatic radiometric [Km ATP] KinaseProfiler LeadHunter assay, kinase: CDK2/cyclinA, catalogue number: 14-448KP The assay has been performed by Eurofins Discovery. The following applies: ATP concentration 45.0 uM, Test compound concentration 10.0 uM. It counts as protein-complex assay.

Test [2] has as its target Casein kinase I isoform gamma-1 (Homo sapiens) (UniProt Q9HCP0). Description: Enzymatic radiometric [Km ATP] KinaseProfiler LeadHunter assay, kinase: CK1-gamma1, catalogue number: 14-711KP The assay has been performed by Eurofins Discovery. The following applies: ATP concentration 15.0 uM, Test compound concentration 10.0 uM.
Test [3] addresses Epidermal growth factor receptor (Homo sapiens) (UniProt P00533). Description: Enzymatic radiometric [Km ATP] KinaseProfiler LeadHunter assay, kinase: EGFR, catalogue number: 14-531KP The assay has been performed by Eurofins Discovery. The following applies: ATP concentration 10.0 uM, Test compound concentration 10.0 uM.
Test [4] deals with Tyrosine-protein kinase Fyn (Homo sapiens) (UniProt P06241). Description: Enzymatic radiometric [Km ATP] KinaseProfiler LeadHunter assay, kinase: Fyn, catalogue number: 14-441KP The assay has been performed by Eurofins Discovery. The following applies: ATP concentration 70.0 uM, Test compound concentration 10.0 uM.
Test [5] deals with Insulin-like growth factor 1 receptor (Homo sapiens) (UniProt P08069). Description: Enzymatic radiometric [Km ATP] KinaseProfiler LeadHunter assay, kinase: IGF-1R, catalogue number: 14-465KP The assay has been performed by Eurofins Discovery. The conditions noted are these: ATP concentration 200.0 uM, Test compound concentration 10.0 uM.
The target in test [6] is T1, Serine/threonine-protein kinase 4 (Homo sapiens) (UniProt Q13043).
T1 sequence (whole entry): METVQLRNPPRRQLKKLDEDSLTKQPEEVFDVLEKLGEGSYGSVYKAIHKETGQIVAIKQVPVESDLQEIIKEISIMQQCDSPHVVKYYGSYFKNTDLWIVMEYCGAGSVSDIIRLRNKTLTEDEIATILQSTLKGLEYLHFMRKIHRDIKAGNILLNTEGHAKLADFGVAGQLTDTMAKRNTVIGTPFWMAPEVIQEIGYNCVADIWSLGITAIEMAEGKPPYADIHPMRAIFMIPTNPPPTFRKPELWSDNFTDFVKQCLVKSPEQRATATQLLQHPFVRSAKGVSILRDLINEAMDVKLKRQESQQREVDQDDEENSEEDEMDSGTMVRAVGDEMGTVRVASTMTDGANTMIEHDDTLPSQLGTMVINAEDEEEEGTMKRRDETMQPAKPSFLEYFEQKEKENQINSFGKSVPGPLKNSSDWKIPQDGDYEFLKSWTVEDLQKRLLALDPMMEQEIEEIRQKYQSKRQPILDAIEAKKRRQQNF
Description: Enzymatic radiometric [Km ATP] KinaseProfiler LeadHunter assay, kinase: MST1, catalogue number: 14-624KP The assay has been performed by Eurofins Discovery. The conditions noted are these: ATP concentration 90.0 uM, Test compound concentration 10.0 uM.

The target in test [7] is Ribosomal protein S6 kinase beta-1 (Homo sapiens) (UniProt P23443). Description: Enzymatic radiometric [Km ATP] KinaseProfiler LeadHunter assay, kinase: p70S6K, catalogue number: 14-486KP The assay has been performed by Eurofins Discovery. The following applies: ATP concentration 15.0 uM, Test compound concentration 10.0 uM.
In test [8] the target is Serine/threonine-protein kinase pim-1 (Homo sapiens) (UniProt P11309). Description: Enzymatic radiometric [Km ATP] KinaseProfiler LeadHunter assay, kinase: Pim-1, catalogue number: 14-573KP The assay has been performed by Eurofins Discovery. The conditions noted are these: ATP concentration 90.0 uM, Test compound concentration 10.0 uM.
For test [9], the target named is RAC-alpha serine/threonine-protein kinase (Homo sapiens) (UniProt P31749). Description: Enzymatic radiometric [Km ATP] KinaseProfiler LeadHunter assay, kinase: PKB-alpha, catalogue number: 14-276KP The assay has been performed by Eurofins Discovery. The conditions noted are these: ATP concentration 155.0 uM, Test compound concentration 10.0 uM.
Test [10] concerns the target T2, MAP kinase-activated protein kinase 5 (Homo sapiens) (UniProt Q8IW41).
T2 sequence (whole entry): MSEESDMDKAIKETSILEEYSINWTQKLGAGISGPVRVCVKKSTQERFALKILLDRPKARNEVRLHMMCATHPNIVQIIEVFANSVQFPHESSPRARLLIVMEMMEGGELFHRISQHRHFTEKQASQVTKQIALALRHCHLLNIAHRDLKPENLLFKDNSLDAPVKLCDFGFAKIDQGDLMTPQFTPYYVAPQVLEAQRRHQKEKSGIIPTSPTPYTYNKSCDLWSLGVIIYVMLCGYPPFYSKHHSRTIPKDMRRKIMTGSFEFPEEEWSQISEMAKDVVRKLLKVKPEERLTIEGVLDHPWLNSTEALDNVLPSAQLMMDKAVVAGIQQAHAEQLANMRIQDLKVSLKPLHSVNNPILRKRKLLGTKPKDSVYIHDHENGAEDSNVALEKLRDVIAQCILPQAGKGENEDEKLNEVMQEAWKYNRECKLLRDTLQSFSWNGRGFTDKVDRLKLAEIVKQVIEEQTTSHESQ
Description: Enzymatic radiometric [Km ATP] KinaseProfiler LeadHunter assay, kinase: PRAK, catalogue number: 14-334KP The assay has been performed by Eurofins Discovery. The conditions noted are these: ATP concentration 15.0 uM, Test compound concentration 10.0 uM.

The target of test [11] is Rho-associated protein kinase 1 (Homo sapiens) (UniProt Q13464). Description: Enzymatic radiometric [Km ATP] KinaseProfiler LeadHunter assay, kinase: ROCK-I, catalogue number: 14-601KP The assay has been performed by Eurofins Discovery. The following applies: ATP concentration 70.0 uM, Test compound concentration 10.0 uM.
Test [12] concerns the target T3, Mitogen-activated protein kinase kinase kinase 7 (Homo sapiens) (UniProt O43318).
T3 sequence (whole entry): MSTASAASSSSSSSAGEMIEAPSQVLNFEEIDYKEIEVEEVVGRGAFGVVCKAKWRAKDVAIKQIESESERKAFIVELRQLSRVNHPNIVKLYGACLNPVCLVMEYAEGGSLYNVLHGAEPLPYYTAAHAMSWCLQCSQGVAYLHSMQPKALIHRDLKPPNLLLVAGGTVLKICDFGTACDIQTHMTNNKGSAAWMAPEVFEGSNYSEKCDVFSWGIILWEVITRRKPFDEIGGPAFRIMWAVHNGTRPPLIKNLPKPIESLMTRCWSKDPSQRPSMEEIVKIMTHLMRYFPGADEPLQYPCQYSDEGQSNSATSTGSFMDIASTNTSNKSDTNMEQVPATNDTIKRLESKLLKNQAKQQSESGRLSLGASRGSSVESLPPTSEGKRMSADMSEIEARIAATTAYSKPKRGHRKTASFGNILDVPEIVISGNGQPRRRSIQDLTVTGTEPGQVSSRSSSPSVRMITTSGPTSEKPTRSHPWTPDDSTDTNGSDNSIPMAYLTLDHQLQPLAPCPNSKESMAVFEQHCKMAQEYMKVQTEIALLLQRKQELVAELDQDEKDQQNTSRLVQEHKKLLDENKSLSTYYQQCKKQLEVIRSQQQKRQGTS
Description: Enzymatic radiometric [Km ATP] KinaseProfiler LeadHunter assay, kinase: TAK1, catalogue number: 14-600KP The assay has been performed by Eurofins Discovery. The conditions noted are these: ATP concentration 45.0 uM, Test compound concentration 10.0 uM.

Where “and” joins values, the source holds several entries; their conditions need not be identical. Equal values may be shown once.

Sequence of Casein kinase I isoform gamma-1 (Homo sapiens) (Q9HCP0 whole entry, looked up, canonical isoform): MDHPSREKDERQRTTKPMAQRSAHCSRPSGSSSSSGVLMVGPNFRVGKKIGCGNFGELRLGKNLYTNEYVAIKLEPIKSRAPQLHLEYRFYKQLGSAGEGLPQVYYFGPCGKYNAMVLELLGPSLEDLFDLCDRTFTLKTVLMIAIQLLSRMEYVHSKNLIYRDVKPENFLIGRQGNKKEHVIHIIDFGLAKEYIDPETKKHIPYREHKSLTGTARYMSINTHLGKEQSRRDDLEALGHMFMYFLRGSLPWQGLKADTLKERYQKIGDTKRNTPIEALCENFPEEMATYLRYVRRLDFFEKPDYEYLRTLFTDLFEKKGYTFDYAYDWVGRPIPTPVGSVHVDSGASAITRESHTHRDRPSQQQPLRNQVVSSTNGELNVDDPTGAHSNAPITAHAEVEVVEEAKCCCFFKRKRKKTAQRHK
Sequence of Insulin-like growth factor 1 receptor (Homo sapiens) (P08069 31-736 limits assumed): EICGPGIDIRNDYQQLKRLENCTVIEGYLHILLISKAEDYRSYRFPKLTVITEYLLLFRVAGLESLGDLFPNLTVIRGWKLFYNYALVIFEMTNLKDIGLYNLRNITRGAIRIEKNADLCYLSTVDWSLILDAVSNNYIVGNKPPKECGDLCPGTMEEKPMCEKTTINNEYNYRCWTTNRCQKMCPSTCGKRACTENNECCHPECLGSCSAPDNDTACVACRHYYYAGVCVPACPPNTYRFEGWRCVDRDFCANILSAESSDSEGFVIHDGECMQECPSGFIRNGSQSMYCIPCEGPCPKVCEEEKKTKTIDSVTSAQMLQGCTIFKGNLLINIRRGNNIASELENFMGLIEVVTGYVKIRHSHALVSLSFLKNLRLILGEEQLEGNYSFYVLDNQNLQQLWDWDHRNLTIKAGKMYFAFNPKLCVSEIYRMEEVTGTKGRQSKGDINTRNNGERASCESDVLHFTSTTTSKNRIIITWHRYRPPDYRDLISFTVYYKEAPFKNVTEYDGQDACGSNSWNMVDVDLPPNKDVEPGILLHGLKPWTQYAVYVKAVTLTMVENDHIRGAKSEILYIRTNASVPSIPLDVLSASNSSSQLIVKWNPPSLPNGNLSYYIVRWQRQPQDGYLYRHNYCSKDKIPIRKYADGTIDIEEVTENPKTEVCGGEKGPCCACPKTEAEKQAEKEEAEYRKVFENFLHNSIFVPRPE
Sequence of Insulin-like growth factor 1 receptor (Homo sapiens) (P08069 741-1367 limits assumed): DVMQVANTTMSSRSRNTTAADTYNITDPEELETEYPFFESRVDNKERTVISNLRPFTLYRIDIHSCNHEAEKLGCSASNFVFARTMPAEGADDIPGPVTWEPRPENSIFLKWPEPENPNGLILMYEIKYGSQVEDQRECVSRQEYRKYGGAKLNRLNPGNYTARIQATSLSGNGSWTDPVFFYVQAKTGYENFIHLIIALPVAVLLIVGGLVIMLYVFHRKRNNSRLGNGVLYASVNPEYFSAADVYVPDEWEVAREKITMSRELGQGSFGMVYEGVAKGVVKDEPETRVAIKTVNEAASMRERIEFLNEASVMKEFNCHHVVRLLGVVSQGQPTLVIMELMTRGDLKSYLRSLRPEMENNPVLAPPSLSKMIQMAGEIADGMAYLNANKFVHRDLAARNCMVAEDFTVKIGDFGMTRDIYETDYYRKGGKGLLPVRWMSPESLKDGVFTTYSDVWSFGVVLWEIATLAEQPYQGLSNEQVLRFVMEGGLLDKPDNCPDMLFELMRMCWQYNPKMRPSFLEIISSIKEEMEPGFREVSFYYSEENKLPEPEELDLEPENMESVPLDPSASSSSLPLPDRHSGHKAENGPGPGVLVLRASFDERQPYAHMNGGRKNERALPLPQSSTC
Sequence of Tyrosine-protein kinase Fyn (Homo sapiens) (P06241 2-537 limits assumed): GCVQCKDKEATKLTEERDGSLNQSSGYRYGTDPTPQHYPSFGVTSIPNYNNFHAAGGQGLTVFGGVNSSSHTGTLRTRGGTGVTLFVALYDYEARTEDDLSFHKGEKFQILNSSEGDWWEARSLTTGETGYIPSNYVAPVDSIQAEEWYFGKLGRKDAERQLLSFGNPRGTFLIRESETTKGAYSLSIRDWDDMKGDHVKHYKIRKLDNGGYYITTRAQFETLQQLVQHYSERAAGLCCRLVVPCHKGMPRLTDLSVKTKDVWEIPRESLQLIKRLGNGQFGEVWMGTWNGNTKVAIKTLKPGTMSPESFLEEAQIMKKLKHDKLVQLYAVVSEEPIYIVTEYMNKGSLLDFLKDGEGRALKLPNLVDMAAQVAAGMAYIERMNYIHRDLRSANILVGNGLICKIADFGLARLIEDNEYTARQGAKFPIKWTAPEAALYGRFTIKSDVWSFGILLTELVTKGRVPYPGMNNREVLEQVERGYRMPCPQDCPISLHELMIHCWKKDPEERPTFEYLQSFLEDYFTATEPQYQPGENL
Sequence of Serine/threonine-protein kinase pim-1 (Homo sapiens) (P11309 whole entry, looked up): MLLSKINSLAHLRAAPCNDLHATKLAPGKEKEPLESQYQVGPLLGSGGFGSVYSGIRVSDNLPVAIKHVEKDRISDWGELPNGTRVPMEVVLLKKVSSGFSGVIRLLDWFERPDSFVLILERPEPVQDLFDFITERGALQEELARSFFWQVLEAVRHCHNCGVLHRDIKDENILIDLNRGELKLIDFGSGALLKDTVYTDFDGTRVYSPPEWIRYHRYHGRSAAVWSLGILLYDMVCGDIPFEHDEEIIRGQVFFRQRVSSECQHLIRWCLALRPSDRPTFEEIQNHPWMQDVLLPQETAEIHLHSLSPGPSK
Sequence of Rho-associated protein kinase 1 (Homo sapiens) (Q13464 2-1354 limits assumed): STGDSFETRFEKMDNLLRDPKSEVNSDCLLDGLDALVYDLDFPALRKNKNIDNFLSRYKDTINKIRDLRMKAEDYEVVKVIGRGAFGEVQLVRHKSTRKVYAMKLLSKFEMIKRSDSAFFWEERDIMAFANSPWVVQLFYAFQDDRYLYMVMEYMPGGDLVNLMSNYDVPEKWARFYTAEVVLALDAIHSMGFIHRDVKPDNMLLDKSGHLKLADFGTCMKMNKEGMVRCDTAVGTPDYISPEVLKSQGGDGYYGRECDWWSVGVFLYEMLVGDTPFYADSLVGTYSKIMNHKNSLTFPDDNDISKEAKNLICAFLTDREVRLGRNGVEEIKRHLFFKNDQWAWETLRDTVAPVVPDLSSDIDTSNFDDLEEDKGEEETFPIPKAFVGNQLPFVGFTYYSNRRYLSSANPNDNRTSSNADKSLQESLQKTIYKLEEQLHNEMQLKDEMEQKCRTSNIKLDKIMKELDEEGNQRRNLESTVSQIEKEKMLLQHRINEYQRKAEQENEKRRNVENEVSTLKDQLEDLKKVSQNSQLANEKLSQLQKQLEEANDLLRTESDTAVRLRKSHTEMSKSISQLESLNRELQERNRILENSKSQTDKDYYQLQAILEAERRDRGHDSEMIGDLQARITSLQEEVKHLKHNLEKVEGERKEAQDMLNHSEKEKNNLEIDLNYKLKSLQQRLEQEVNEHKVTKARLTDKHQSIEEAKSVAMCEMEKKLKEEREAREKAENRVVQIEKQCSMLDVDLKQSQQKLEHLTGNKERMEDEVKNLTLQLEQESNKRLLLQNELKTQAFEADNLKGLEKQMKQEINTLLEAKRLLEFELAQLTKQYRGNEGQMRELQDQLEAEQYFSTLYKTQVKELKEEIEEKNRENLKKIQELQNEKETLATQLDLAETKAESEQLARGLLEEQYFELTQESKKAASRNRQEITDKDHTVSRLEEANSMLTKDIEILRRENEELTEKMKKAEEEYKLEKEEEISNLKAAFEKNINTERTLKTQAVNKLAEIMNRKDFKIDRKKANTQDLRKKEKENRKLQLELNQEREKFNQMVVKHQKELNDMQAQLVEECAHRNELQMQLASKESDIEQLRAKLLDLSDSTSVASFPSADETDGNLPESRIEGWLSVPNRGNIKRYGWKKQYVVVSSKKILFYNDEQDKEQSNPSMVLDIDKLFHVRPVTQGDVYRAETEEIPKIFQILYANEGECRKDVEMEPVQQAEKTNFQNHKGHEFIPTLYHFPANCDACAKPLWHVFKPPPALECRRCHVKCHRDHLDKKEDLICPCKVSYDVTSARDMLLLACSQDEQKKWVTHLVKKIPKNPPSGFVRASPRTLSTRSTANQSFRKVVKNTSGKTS
Sequence of RAC-alpha serine/threonine-protein kinase (Homo sapiens) (P31749 whole entry): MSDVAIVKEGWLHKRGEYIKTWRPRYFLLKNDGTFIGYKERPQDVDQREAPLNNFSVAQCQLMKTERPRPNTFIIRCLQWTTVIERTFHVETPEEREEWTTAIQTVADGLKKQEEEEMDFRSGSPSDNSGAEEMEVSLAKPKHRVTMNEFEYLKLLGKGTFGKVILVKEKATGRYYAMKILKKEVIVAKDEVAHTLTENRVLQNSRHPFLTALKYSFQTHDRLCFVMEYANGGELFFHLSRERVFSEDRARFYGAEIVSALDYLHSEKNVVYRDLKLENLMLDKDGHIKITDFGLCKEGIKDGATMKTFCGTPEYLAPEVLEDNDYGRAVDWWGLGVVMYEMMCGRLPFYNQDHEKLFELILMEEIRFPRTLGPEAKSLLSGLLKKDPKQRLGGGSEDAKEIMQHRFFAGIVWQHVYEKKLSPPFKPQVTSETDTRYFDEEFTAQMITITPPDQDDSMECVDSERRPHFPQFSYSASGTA
Sequence of Ribosomal protein S6 kinase beta-1 (Homo sapiens) (P23443 whole entry, looked up): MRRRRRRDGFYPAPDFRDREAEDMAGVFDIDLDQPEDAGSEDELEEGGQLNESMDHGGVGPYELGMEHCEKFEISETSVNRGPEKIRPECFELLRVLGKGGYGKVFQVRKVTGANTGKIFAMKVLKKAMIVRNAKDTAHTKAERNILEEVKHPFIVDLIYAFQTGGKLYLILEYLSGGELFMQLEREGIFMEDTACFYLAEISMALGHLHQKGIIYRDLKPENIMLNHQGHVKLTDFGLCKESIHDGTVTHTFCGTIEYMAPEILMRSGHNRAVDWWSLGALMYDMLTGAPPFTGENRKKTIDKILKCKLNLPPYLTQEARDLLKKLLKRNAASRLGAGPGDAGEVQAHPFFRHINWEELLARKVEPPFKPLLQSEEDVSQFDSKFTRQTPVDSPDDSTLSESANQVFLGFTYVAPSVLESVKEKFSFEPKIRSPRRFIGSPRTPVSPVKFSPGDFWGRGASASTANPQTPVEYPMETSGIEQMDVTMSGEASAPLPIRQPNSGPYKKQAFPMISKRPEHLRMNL

With `C[C@H](C(=O)O)[C@@H](NC(=O)c1ncnc2[nH]ccc12)c1ccc(Br)cc1`, the Activity in test [1] was 102%; in test [2], 92%; in test [3], 93%; in test [4], 98%; in test [5], 95%; in test [6], 121%. The Activity in [7] was found to be 97%; in test [8] it was 95%; in test [9] it was 95%; in test [10] it was 88%; in [11], 90%; in test [12], 95%.
As to `CC(C)[C@@H](Nc1ncnc2[nH]c(-c3cnn(C)c3C#N)cc12)c1ccc2c(n1)OCCO2`, the Activity in test [1] was 95% and 104%; in test [2], 87% and 99%; in [3] it was 81% and 77%; in test [4], 56% and 55%; in [5], 108% and 94%; in test [6], 103% and 121%. In addition, the Activity was 82% and 106% in test [7]; 79% and 99% in [8]; 95% and 94% in [9]; 95% and 89% in test [10]; 93% and 107% in [11]; 103% and 100% in [12].
